Laboratory results taken from patent US20240366629A1, “Porphyrin Complexes as Antidotes for Carbon Monoxide Exposure and Methods of Use for Same” (priority 2021, published 2024).

Key:
[1] = Solubility in water and methanol
[2] = tested on: CO-treated RBCs; assay: Time-course CO removal from CO-treated RBCs (absorbance at 420 nm); assay type: cell-based, bovine; conditions: quiescent suspension of CO-poisoned RBCs in buffered dithionite solution, 1 equiv of 6 (reduced in situ to 7)
Protocol: Time-Course CO Removal From CO-Treated RBCs Defibrinated bovine blood (Hemostat Laboratories) was diluted with PBS containing 5.7 mM sodium dithionite. CO was bubbled through this suspension for 5 s. This mixture was centrifuged for 30 s at 760×g. The supernatant was discarded, and the pellet was washed with PBS containing 5.7 mM sodium dithionite. This washing was repeated three more times to remove excess CO. An aliquot of the stock suspension of CO-treated RBCs was added to a quartz cuvette containing 1 mL of DI water to lyse the cells. The concentration of COHb was assessed by measuring the absorbance at 420 nm (ε=10^5.63) of this lysate. For time-course CO removal, an aliquot of the stock suspension of CO-treated RBCs was diluted to 1 mL with PBS containing 5.7 mM sodium dithionite. A full equivalent of compound 6 (which is reduced in situ to 7) was added, the suspension was rapidly mixed, and absorbance at 420 nm was monitored continuously (FIG. 12).

Row | Molecule | solubility in water and methanol [1] | time to essentially complete reaction (decrease of COHb absorbance at 420 nm) [2] [min]
1 | O=S(=O)([O-])c1cc(-c2cc(F)cc(F)c2)c(-c2c3nc(c(-c4c(-c5cc(F)cc(F)c5)cc(S(=O)(=O)[O-])cc4-c4cc(F)cc(F)c4)c4ccc([nH]4)c(-c4c(-c5cc(F)cc(F)c5)cc(S(=O)(=O)[O-])cc4-c4cc(F)cc(F)c4)c4nc(c(-c5c(-c6cc(F)cc(F)c6)cc(S(=O)(=O)[O-])cc5-c5cc(F)cc(F)c5)c5ccc2[nH]5)C=C4)C=C3)c(-c2cc(F)cc(F)c2)c1.[Na+].[Na+].[Na+].[Na+] [Compound 2-3b, sodium 5,10,15,20-tetrakis(2,6-di(3,5-difluoro)phenyl-4-(sulfonato)phenyl)porphyrin] | readily dissolved | –
2 | C[Si](C)(C)c1cc(-c2ccccc2)c(-c2c3nc(c(-c4c(-c5ccccc5)cc([Si](C)(C)C)cc4-c4ccccc4)c4ccc([nH]4)c(-c4c(-c5ccccc5)cc([Si](C)(C)C)cc4-c4ccccc4)c4nc(c(-c5c(-c6ccccc6)cc([Si](C)(C)C)cc5-c5ccccc5)c5ccc2[nH]5)C=C4)C=C3)c(-c2ccccc2)c1 [Compound 2-2a, 5,10,15,20-tetrakis(2,6-diphenyl-4-(trimethylsilyl)phenyl) porphyrin] | completely insoluble | –
3 | Sodium 5,10,15,20-tetrakis(2,6-diphenyl-4-(sulfonate)phenyl)porphyrinatohydroxoiron(III) [Compound 6] | – | ≤ 3
4 | 5,10,15,20-tetrakis(2,6-di(3,5-difluoro)phenyl-4-(trimethylsilyl) phenyl) porphyrin [Compound 2-2b] | completely insoluble | –
5 | O=S(=O)([O-])c1cc(-c2ccccc2)c(-c2c3nc(c(-c4c(-c5ccccc5)cc(S(=O)(=O)[O-])cc4-c4ccccc4)c4ccc([nH]4)c(-c4c(-c5ccccc5)cc(S(=O)(=O)[O-])cc4-c4ccccc4)c4nc(c(-c5c(-c6ccccc6)cc(S(=O)(=O)[O-])cc5-c5ccccc5)c5ccc2[nH]5)C=C4)C=C3)c(-c2ccccc2)c1.[Na+].[Na+].[Na+].[Na+] [Compound 2-3a, sodium 5,10,15,20-tetrakis(2,6-diphenyl-4-(sulfonato)phenyl)porphyrin] | readily dissolved | –
